The record followed here is patent publication EP0671918B1, “COMPOSITIONS CONTAINING ACYCLOVIR-LIKE COMPOUNDS AND 2'-VINYL SUBSTITUTED NUCLEOSIDE ANALOGS FOR THE TREATMENT OF VIRAL INFECTIONS” (MERRELL PHARMACEUTICALS INC., priority 1992, dated 1994).

Assay [1] deals with herpes simplex virus type I. Description: Anti-herpes viral yield reduction in vero cells, plaque method. The assay is classed as cell-based, herpes simplex virus KOS (type 1). As to conditions: 24 hours post infection. The procedure:
(§1) Two strains of herpes simplex virus are used: KOS (type 1) and EKC (type 2). Prepare all of the virus stocks by infecting vero cells at an input multiplicity of 0.1 PFU/cell. Sonically disrupt the cultures at 20-24 hours post infection and store them at -70°C after inclusion of DMSO to 5% (v/v) to prevent freeze damage.
(§2) Determine the anti-herpes viral activity of the compounds by a known method (Ash and Diekema, Antiviral Research, 8: 71-83 (1987)). For example, infect vero cells with each strain of HSV at 1 PFU/Cell. At the end of the absorption period (60 min., 36°C), remove the unattached virus. Wash cell sheets twice with Eagles basal medium (EBM) and 2% fetal calf serum (FCS). Add fresh medium containing the test compounds. Finally, determine viral yields at 24 hours post infection by plaque method on vero cells with methyl cellulose overlay (0.5% in EBM + 1% FCS).

Assay [2] has as its system herpes simplex virus type II. Described as above. As to conditions: 24 hours post infection; for Virus Titer: Viral Control 1.24x10^5. The assay is classed as cell-based, herpes simplex virus EKC (type 2). Here is the method:
as §1, §2

[3] abbreviates: Single agent, Conc. 5.0 ng/ml, Viral Control 2.6x10^5.

Each structure is given as a SMILES string.

As for `Nc1nc2c(ncn2COCCO)c(=O)[nH]1` [ACV, 9-[(2-hydroxyethoxy)methyl]guanine, reference compound], testing at 0.0025 µg/mL in assay [1] (Single agent, Conc. 2.5 ng/ml) gave an inhibition of 0%. The “Virus Titer” value in assay [1] (Single agent, Conc. 2.5 ng/ml, Viral Control 2.6x10^5) is recorded as 3x10^5 P.F.U./ml; in assay [1] (setting [3]), 1.85x10^5 P.F.U./ml. Besides, testing at 0.005 µg/mL in assay [1] (Single agent, Conc. 5.0 ng/ml) gave an inhibition of 30%.
On to `Nc1ccn([C@@H]2O[C@H](CO)[C@@H](O)/C2=C\F)c(=O)n1` [Compound A, (E)-2'-deoxy-2'-fluoromethylidenecytidine], for which the inhibition at 0.0125 µg/mL in assay [1] (Conc. 0.0125 ug/ml) was 0%; in assay [2] (Conc. 0.0125 ug/ml), 32%. In addition, the “Virus Titer” value in assay [1] (Conc. 0.0125 ug/ml, Viral Control 3.7x10^8) is listed as 5.5x10^8 P.F.U./ml; in assay [1] (Conc. 0.025 ug/ml, Viral Control 3.7x10^8) it was 4.5x10^7 P.F.U./ml; in assay [1] (Conc. 0.050 ug/ml, Viral Control 3.7x10^8), 0 P.F.U./ml; in assay [1] (Conc. 0.10 ug/ml, Viral Control 3.7x10^8), 0 P.F.U./ml; in assay [1] (setting [3]) it was 1.6x10^5 P.F.U./ml; in assay [2] (Conc. 0.0125 ug/ml), 8.5x10^4 P.F.U./ml. Besides, the “Virus Titer” value in assay [2] (Conc. 0.025 ug/ml) was 5.5x10^3 P.F.U./ml; in assay [2] (Conc. 0.050 ug/ml) it was 0 P.F.U./ml; in assay [2] (Conc. 0.10 ug/ml), 0 P.F.U./ml. Also, the inhibition at 0.025 µg/mL came to 88% in assay [1] (Conc. 0.025 ug/ml) and 96% in assay [2] (Conc. 0.025 ug/ml). Also, the inhibition at 0.05 µg/mL in assay [1] (Conc. 0.050 ug/ml) and in assay [2] (Conc. 0.050 ug/ml) was 100% throughout. The inhibition at 0.1 µg/mL in assay [1] (Conc. 0.10 ug/ml) and in assay [2] (Conc. 0.10 ug/ml) was 100% in each case. In assay [1] (Single agent, Conc. 5.0 ng/ml), this compound yielded an inhibition at 0.005 µg/mL of 42%.

A word on the inhibition: it is the share of the control response that was lost under treatment. A lower inhibition goes with little suppression.
